Assay results reported in patent US20060069132A1, “Azolecarboxamide herbicides” (priority 2004, published 2006).

How the values were obtained:
barnyardgrass [1] = assay: Test A pre-/postemergence herbicide test; format: in vivo, Echinochloa crus-galli; details: for pest or weed control at 125 g/ha / pest or weed control at 500 g/ha: Echinochloa crus-galli, 240 h, read-out: Barnyardgrass plant response rating; for pest or weed control at 125 g/ha: 125 g ai/ha
Summary of the method: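 Visual injury scores on a 0–100 scale (100 = complete control) taken about ten days post-treatment in greenhouse against untreated controls; dash means no result. Treatments: preemergence soil spray and postemergence spray to runoff on one- to two-leaf plants 2 to 10 cm tall, surfactant-containing formulation.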

barnyardgrass [2] = assay: Test C flooded paddy test; format: in vivo, Echinochloa crus-galli
Summary of the method: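 After a postemergence application at 1 to 4 leaves (plants 2–18 cm high), or at 2 leaves for barnyardgrass in flooded paddy, plants stayed in the greenhouse for 12 to 14 days. Damage was then judged visually relative to control plants, with 100 indicating complete control.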

ducksalad = assay: Test C flooded paddy test; format: in vivo, Heteranthera limosa
[3] = system: smallflower umbrella sedge; assay: Test C flooded paddy test; format: in vivo, Cyperus difformis
[4] = Postemergence, 500 g ai/ha, 0 to 100 scale, 0 no effect, 100 complete control
[5] = Postemergence, 2000 g ai/ha, 0 to 100 scale, 0 no effect, 100 complete control
[6] = Preemergence, 2000 g ai/ha, visual rating, 0 to 100 scale (0 no effect, 100 complete control)
[7] = 62 g ai/ha, scale 0 to 100 (0 no effect, 100 complete control)
[8] = 250 g ai/ha, scale of 0 to 100, 0 is no effect, 100 is complete control
[9] = 500 g ai/ha, visual rating after 12 to 14 days, scale 0 to 100 (0 no effect, 100 complete control)
[10] = 125 g ai/ha, scale 0 to 100 (0 no effect, 100 complete control)
[11] = preemergence, 500 g ai/ha, visual injury, 0 to 100 scale (0 no effect, 100 complete control)

| Structure (SMILES) | Barnyardgrass plant response rating (barnyardgrass [1]; [4]) | Plant response rating, Barnyardgrass (barnyardgrass [1]; [5]) | Barnyardgrass plant response rating (barnyardgrass [1]; [6]) | Barnyardgrass plant response rating (barnyardgrass [2]; [7]) | Barnyardgrass plant response rating (barnyardgrass [2]; [8]) | Plant response rating, Barnyardgrass (barnyardgrass [2]; [9]) | Ducksalad plant response rating (ducksalad; [10]) | Ducksalad plant response rating (ducksalad; [8]) | Plant response rating, Ducksalad (ducksalad; [9]) | Sedge, Umbrella plant response rating [3, 10] | Sedge, Umbrella plant response rating [3, 8] | Plant response rating, Sedge, Umbrella [3, 9] | Barnyardgrass plant response rating (barnyardgrass [1]; [11]) | Barnyardgrass plant response rating (barnyardgrass [2]; [10]) | Ducksalad plant response rating (ducksalad; 62 g ai/ha, scale 0 to 100) | Sedge, Umbrella plant response rating ([3]; 62 g ai/ha, scale 0 to 100) | other results |
| --- | --- | --- | --- | --- | --- | --- | --- | --- | --- | --- | --- | --- | --- | --- | --- | --- | --- |
| C=Cn1nc(C(C)(C)C)cc1C(=O)Nc1cccc(C(C)=O)c1 [Compound 127] | 30 | 50 | 30 | 20 | 30 | 55 | 15 | 20 | 80 | 80 | 80 | 85 |  |  |  |  | Barnyardgrass plant response rating (barnyardgrass [1]; Preemergence, 500 g ai/ha, visual rating, 0 to 100 scale (0 no effect, 100 complete control)): 20; Barnyardgrass plant response rating (barnyardgrass [2]; 125 g ai/ha, scale of 0 to 100, 0 is no effect, 100 is complete control): 30; Ducksalad plant response rating (ducksalad; [7]): 0; Sedge, Umbrella plant response rating [3, 7]: 80 |
| CCn1nc(C(C)(C)C)c(F)c1C(=O)Nc1cc(C(=O)N(C)C)ccc1F [Compound 276, N-[5-[(dimethylamino)carbonyl]-2-fluorophenyl]-3-(1,1-dimethylethyl)-1-ethyl-4-fluoro-1H-pyrazole-5-carboxamide] |  |  |  |  |  |  |  |  |  |  |  |  |  |  |  |  | pest or weed control at 62 g/ha (barnyardgrass [2]; Echinochloa crus-galli, 62 g ai/ha, scale 0 to 100 (0 no effect, 100 complete control), read-out: Barnyardgrass plant response rating): 0%; pest or weed control at 125 g/ha (barnyardgrass [2]; Echinochloa crus-galli, 125 g ai/ha, scale 0 to 100 (0 no effect, 100 complete control), read-out: Barnyardgrass plant response rating): 15%; pest or weed control at 250 g/ha (barnyardgrass [2]; Echinochloa crus-galli, 250 g ai/ha, scale of 0 to 100, 0 is no effect, 100 is complete control, read-out: Barnyardgrass plant response rating): 50%; pest or weed control at 500 g/ha (barnyardgrass [2]; Echinochloa crus-galli, 500 g ai/ha, visual rating after 12 to 14 days, scale 0 to 100 (0 no effect, 100 complete control), read-out: Plant response rating, Barnyardgrass): 70%; pest or weed control at 62 g/ha (ducksalad; Heteranthera limosa, 62 g ai/ha, scale 0 to 100, read-out: Ducksalad plant response rating): 0%; pest or weed control at 125 g/ha (ducksalad; Heteranthera limosa, 125 g ai/ha, scale 0 to 100 (0 no effect, 100 complete control), read-out: Ducksalad plant response rating): 20%; pest or weed control at 250 g/ha (ducksalad; Heteranthera limosa, 250 g ai/ha, scale of 0 to 100, 0 is no effect, 100 is complete control, read-out: Ducksalad plant response rating): 70%; pest or weed control at 500 g/ha (ducksalad; Heteranthera limosa, 500 g ai/ha, visual rating after 12 to 14 days, scale 0 to 100 (0 no effect, 100 complete control), read-out: Plant response rating, Ducksalad): 85%; pest or weed control at 62 g/ha ([3]; Cyperus difformis, 62 g ai/ha, scale 0 to 100, read-out: Sedge, Umbrella plant response rating): 45%; pest or weed control at 125 g/ha ([3]; Cyperus difformis, 125 g ai/ha, scale 0 to 100 (0 no effect, 100 complete control), read-out: Sedge, Umbrella plant response rating): 75%; pest or weed control at 250 g/ha ([3]; Cyperus difformis, 250 g ai/ha, scale of 0 to 100, 0 is no effect, 100 is complete control, read-out: Sedge, Umbrella plant response rating): 80%; pest or weed control at 500 g/ha ([3]; Cyperus difformis, 500 g ai/ha, visual rating after 12 to 14 days, scale 0 to 100 (0 no effect, 100 complete control), read-out: Plant response rating, Sedge, Umbrella): 85% |
| C=CCN(C)C(=O)c1cccc(NC(=O)c2cc(C(C)(C)C)nn2CC)c1 [Compound 285] | 55 | 80 | 90 | 10 | 55 | 75 | 80 | 90 | 90 | 35 | 50 | 65 | 70 | 25 | 45 | 25 |  |
| CCOC(=O)c1cccc(NC(=O)c2cc(C(C)(C)C)nn2C)n1 [Compound 313] | 80 | 95 | 90 | 0 |  |  | 30 |  |  | 70 |  |  | 80 | 0 | 0 | 30 | Barnyardgrass plant response rating (barnyardgrass [2]; 16 g ai/ha, scale 0 to 100): 0; Barnyardgrass plant response rating (barnyardgrass [2]; 31 g ai/ha, scale 0 to 100): 0; Ducksalad plant response rating (ducksalad; 16 g ai/ha, scale 0 to 100): 0; Ducksalad plant response rating (ducksalad; 31 g ai/ha, scale 0 to 100): 0; Sedge, Umbrella plant response rating ([3]; 16 g ai/ha, scale 0 to 100): 0; Sedge, Umbrella plant response rating ([3]; 31 g ai/ha, scale 0 to 100): 0 |
| CCNC(=O)c1ccc(F)c(NC(=O)c2c3c(nn2CC)C(C)(C)CC3)c1 [Compound 353] |  |  |  | 0 | 20 | 20 | 0 | 30 | 30 | 0 | 50 | 50 |  | 0 | 0 | 0 |  |
| CCNC(=O)c1cccc(NC(=O)c2nc(C(C)(C)C)nn2CC)c1 [Compound 446, 3-(1,1-dimethylethyl)-1-ethyl-N-[3-[(ethylamino)carbonyl]phenyl]-1H-1,2,4-triazole-5-carboxamide] |  |  |  |  |  |  |  |  |  |  |  |  |  |  |  |  | pest or weed control at 125 g/ha (barnyardgrass [1]; post-emergence, Postemergence, 0 to 100 scale, 0 no effect, 100 complete control): 80%; pest or weed control at 500 g/ha (barnyardgrass [1]; post-emergence, Postemergence, 500 g ai/ha, 0 to 100 scale, 0 no effect, 100 complete control): 90%; pest or weed control at 125 g/ha (barnyardgrass [1]; pre-emergence, preemergence, visual injury, 0 to 100 scale (0 no effect, 100 complete control)): 55%; pest or weed control at 500 g/ha (barnyardgrass [1]; pre-emergence, preemergence, 500 g ai/ha, visual injury, 0 to 100 scale (0 no effect, 100 complete control)): 85% |
